Article PMC6718988, “Bioactivity and Bactericidal Mechanism of Histidine-Rich β-Hairpin Peptide Against Gram-Negative Bacteria” (International Journal of Molecular Sciences, 2019)
Converted amounts (≈) assume the structure as drawn. Like-named read-outs stand apart in the source and are kept apart here. Where a SMILES comes first, the peptide text is derived from it. [ ]: non-standard residue; d: D form.

How the values were obtained:
[1] = system: Gram-negative bacteria; test: MICs against Gram-negative strains (geometric mean, range); format: cell-based; conditions: Gram-negative strains; 256 μM used where no activity at 128 μM
Method: (§1) The minimum inhibitory concentration (MIC) was measured using a broth microdilution method to determine the in vitro antimicrobial activity of the peptides. Bacteria were inoculated into MHB and incubated overnight at 37 °C until the bacteria were in log phase growth. Next, we corrected the bacterial concentration to approximately 1 × 10^5 CFU/mL using MHB. The peptides were added to 96-well plates containing 0.01% acetic acid and 0.2% bovine serum albumin at final concentrations ranging from 0.25 to 128 μM. After incubation at 37 °C for 24 h, the absorbance was measured at 492 nm using a microplate reader (Tecan GENios F129004, Tecan, Austria). Broth containing microbes and […] were used as positive and negative controls, respectively. The lowest peptide concentration with no increase in absorbance compared to that of the negative control was defined as the MIC. The experiments were independently performed three times.

[2] = system: human red blood cells (hRBCs); test: Hemolytic activity; conditions: 1 h, OD 570 nm; for hemolysis rate: at the highest concentration (128 μM), 1% hRBC in PBS, 37 °C, 0.1% Triton X-100 positive control; for MHC, minimum hemolytic concentration: concentration causing 5% hemolysis of hRBC, 1% hRBC in PBS pH 7.4, 37 °C, repeated three times
Method: Briefly, collected human red blood cells (hRBCs) were washed three times with PBS (pH 7.4) and diluted to 1% in PBS. Next, equal volumes of blood cells were mixed with different peptide concentrations in 96-well plates followed by incubated at 37 °C for 1 h. The mixtures were centrifuged (1000 g, 5 min), and the supernatants were transferred to 96-well plates to measure the optical density (OD) at 570 nm. Untreated blood cells were used as negative controls, and 0.1% Triton X-100-treated blood cells were used as positive controls. The minimum peptide concentration corresponding to 5% hemolytic activity was defined as the minimal hemolytic concentration (MHC). These assays were independently repeated three times.

[3] = system: P. aeruginosa ATCC27853; test: microbe, parasite or virus in culture
Method: as §1

[4] = system: E. coli K88; test: microbe, parasite or virus in culture; conditions: E. coli K88; MHB, about 1 × 10^5 CFU/mL, 37 °C, 24 h; three independent experiments
Method: as §1

[5] = system: methicillin-resistant S. aureus ATCC43300; test: microbe, parasite or virus in culture
Method: as §1

[6] = system: S. pullorum C7913; test: microbe, parasite or virus in culture
Method: as §1

[7] = system: S. aureus ATCC29213; test: microbe, parasite or virus in culture
Method: as §1

[8] = system: E. coli UB1005; test: microbe, parasite or virus in culture
Method: as §1

[9] = system: E. coli ATCC25922; test: microbe, parasite or virus in culture
Method: as §1

[10] = system: S. epidermidis ATCC12228; test: microbe, parasite or virus in culture
Method: as §1

[11] = system: E. coli K99; test: microbe, parasite or virus in culture; conditions: E. coli K99; MHB, about 1 × 10^5 CFU/mL, 37 °C, 24 h; three independent experiments
Method: as §1

[12] = RP-HPLC retention time as measure of hydrophobicity; format: physicochemical; conditions: analytical Kromasil C18 column 4.6 mm × 250 mm, 5.0 μm, acetonitrile, flow 1.0 mL/min, used as measure of hydrophobicity
Method: The hydrophobicities of the peptides in solution were reliably mirrored by their high-performance liquid chromatography (HPLC)retention times. The retention times for peptide HI2, HW2, HV2, HF2, and PG-1 were 11.13, 10.55, 12.20, 18.06 and 12.56 min, respectively, indicating the following hydrophobic order: HF2 > PG-1 > HV2 > HI2 > HW2(Table 1).
The designed peptides were synthesized and purified by GL Biochem (Shanghai, China). Acetonitrile was used on an analytical Kromasil C18 column (4.6 mm × 250 mm, 5.0 μm, LC 3000, Beijing, China), and the purity of the peptides was determined to be greater than 95% via reversed-phase high-performance liquid chromatography (RP-HPLC) with a flow rate of 1.0 mL/min. The experimental molecular weights of the peptides were evaluated via ESI-MS analysis, and these values were very close to the calculated masses. Next, the peptides were dissolved in deionized water at a concentration of 2.56 mM, and the peptide solutions were stored at −20 °C.

[13] = LPS binding assay (BODIPY-TR-cadaverine displacement); set-up: species or system E. coli; conditions: peptide concentration higher than 4 μM; 50 μg/mL LPS, 5 μg/mL BODIPY-TR cadaverine, Tris 50 mM pH 7.4; 100% = 10 μg/mL polymyxin B
Method: The abilities of the antimicrobial peptides to bind LPS were determined using the fluorescent dye BODIPY-TR-cadaverine (BC) substitution method. LPS (50 μg/mL) from E. coli O111:B4 was incubated with BC (5 μg/mL) in Tris buffer (50 mm, pH 7.4) for 4 h. Next, 50 μL of various concentrations of peptides (final concentration of 1–64 μM) and 50 μL of LPS-BC mixture were added to 96-well plates, and the fluorescence was measured using a fluorescence spectrophotometer (Infinite 200 pro, Tecan, China) at an excitation wavelength of 580 nm and an emission wavelength of 620 nm. Each test was performed three times. The values were converted to %∆F (AU) using the following equation:%ΔF (AU) = [(Fobs − F0)/(F100 − F0)] × 100 where Fobs is the fluorescence value measured in the presence of the peptide, F0 is the initial fluorescence of LPS with BC without the addition of peptides, F100 is the fluorescence value produced by adding 10 μg/mL polymyxin B.

[14] = system: Gram-positive bacteria
Method: as §1

[15] = system: Gram-positive and Gram-negative bacteria
Method: as §1

[16] = system: E. coli ATCC25922; test: Swimming motility assay; format: cell-based; conditions: E. coli ATCC25922, 0.3% agar, 1–8 μM peptide, 37 °C, 20 h; versus untreated control
Method: The cell motility assay was performed on LB medium containing 0.3% agar. The peptides were added to 10 mL of medium at final concentrations of 1–8 μM. After mixing well, the mixtures were poured into 6-well plates and dried for 2 h. Subsequently, an overnight culture of E. coli ATCC 25922 was inoculated in the center of the movement plate. After incubation at 37 °C for 20 h, images were taken using a FluoroChemQ system (Cell biosciences, San Jose, CA, USA). The experiment was independently repeated three times.

[17] = system: E. coli ATCC25922; test: Salt sensitivity assay (MIC in presence of physiological salts); format: cell-based; set-up: unit not given here
Method: Bacteria were inoculated into MHB and incubated overnight at 37 °C until the bacteria were in log phase growth. Next, we corrected the bacterial concentration to approximately 1 × 10^5 CFU/mL using MHB. […] After incubation at 37 °C for 24 h, the absorbance was measured at 492 nm using a microplate reader (Tecan GENios F129004, Tecan, Austria). Broth containing microbes and […] were used as positive and negative controls, respectively. The lowest peptide concentration with no increase in absorbance compared to that of the negative control was defined as the MIC. The experiments were independently performed three times. The effects of salt ions on the antibacterial activities of the antimicrobial peptides were evaluated. Different salt ion concentrations were added to BSA peptide dilutions, and the next steps followed the MIC measurement method. […] These tests were independently repeated three times.

[18] = system: E. coli ATCC25922; test: SEM characterization of cell morphology; format: cell-based; conditions: E. coli ATCC25922, 1 × MIC (HV2 8 μM, PG-1 4 μM), 1 h
Method: For the SEM sample preparation, E. coli ATCC25922 cells were cultured at 37 °C to mid-log phase in MH broth with constant shaking at 220 rpm, centrifuged at 1000 g and then adjusted to an OD600 of 0.1–0.2 in PBS. […] Bacteria incubated with PBS served as controls. After the incubation, the mixture was centrifuged at 5000 g for 5 min, and the collected bacteria were washed three times with PBS. Approximately 2.5% (w/v) glutaraldehyde was added for fixation at 4 °C overnight, followed by washing three times with PBS. The samples were dehydrated with 50%, 70%, 90%, 100% ethanol for 10 min. A mixture of ethanol and tert-butanol was added to the dried bacterial cells for 30 min, and then t-butanol was added for 1 h. Finally, the samples were dehydrated and coated with liquid CO2 in a critical point dryer and then observed using a Hitachi S-4800 SEM (Hitachi, Tokyo, Japan).

N=C(N)NCCC[C@H](NC(=O)[C@H](CCCNC(=N)N)NC(=O)[C@H](Cc1ccccc1)NC(=O)[C@H](Cc1c[nH]cn1)NC(=O)[C@H](Cc1ccccc1)NC(=O)[C@H](Cc1c[nH]cn1)NC(=O)[C@H](Cc1ccccc1)NC(=O)CNC(=O)[C@H]1CCCN1C(=O)[C@H](Cc1ccccc1)NC(=O)[C@H](Cc1c[nH]cn1)NC(=O)[C@H](Cc1ccccc1)NC(=O)[C@H](Cc1c[nH]cn1)NC(=O)[C@H](Cc1ccccc1)NC(=O)[C@H](CCCNC(=N)N)NC(=O)[C@@H](N)CCCNC(=N)N)C(N)=O [HF2] (H-RRFHFHF[dP]GFHFHFRR-NH2; N-terminus assumed)
MBC (GM), geometric mean of MICs, Gram (−) [1]: 8.00 µM
hemolysis rate [2]: 30.46%
MHC, minimum hemolytic concentration [2]: 16 µM
MIC ([3]; ATCC27853, 24 h): >128 µM
MIC [4]: 2 µM (≈ 4.46 µg/mL)
MIC ([5]; ATCC43300, 24 h): 4 µM (≈ 8.91 µg/mL)
MIC ([6]; C7913, 24 h): 4 µM (≈ 8.91 µg/mL)
MIC ([7]; ATCC29213, 24 h): 64 µM (≈ 143 µg/mL)
MIC ([8]; UB1005, 24 h): 8 µM (≈ 17.8 µg/mL)
MIC ([9]; ATCC25922, 24 h): 4 µM (≈ 8.91 µg/mL)
MIC ([10]; ATCC12228, 24 h): 4 µM (≈ 8.91 µg/mL)
MIC [11]: 4 µM (≈ 8.91 µg/mL)
Retention Time [12]: 18.06 min
LPS binding ability relative to binding activity of polymyxin B [13]: higher than 60%
MBC (GM), geometric mean of MICs, Gram (+) ([14]; 24 h): 10.08 µM
MBC (GM), geometric mean of MICs, Gram (+,−) ([15]; 24 h): 8.64 µM

RGGRLCYCRRFCVCVGR-NH2 [PG-1, Protegrin-1, reference compound]
MBC (GM), geometric mean of MICs, Gram (−) [1]: 3.17 µM
swimming motility (diameter of swimming bacteria) [16]: significantly reduced the diameter of the swimming bacteria
hemolysis rate [2]: 48.13%
MHC, minimum hemolytic concentration [2]: 4 µM
MIC ([3]; P. auruginosa 27853, MHB, about 1 × 10^5 CFU/mL, 37 °C, 24 h, three independent experiments): 8 µM
MIC [4]: 2 µM
MIC ([5]; S.aureus 43300 (methicillin-resistant), MHB, about 1 × 10^5 CFU/mL, 37 °C, 24 h, three independent experiments): 8 µM
MIC ([6]; S.pullorum C7913, MHB, about 1 × 10^5 CFU/mL, 37 °C, 24 h, three independent experiments): 4 µM
MIC ([7]; S.aureus 29213, MHB, about 1 × 10^5 CFU/mL, 37 °C, 24 h, three independent experiments): 2 µM
MIC ([8]; E. coli UB1005, MHB, about 1 × 10^5 CFU/mL, 37 °C, 24 h, three independent experiments): 2 µM
MIC ([9]; E. coli 25922, MHB, about 1 × 10^5 CFU/mL, 37 °C, 24 h, 0.25-128 μM, three independent experiments): 4 µM
MIC ([10]; S.epidermidis 12228, MHB, about 1 × 10^5 CFU/mL, 37 °C, 24 h, three independent experiments): 8 µM
MIC [11]: 2 µM
MIC, FeCl3 ([17]; E. coli ATCC25922, 4 μM FeCl3, unit not given): 4
MIC, NH4Cl ([17]; E. coli ATCC25922, 6 μM NH4Cl, unit not given): 4
MIC, ZnCl2 ([17]; E. coli ATCC25922, 8 μM ZnCl2, unit not given): 2
MIC, MgCl2 ([17]; E. coli ATCC25922, 1 mM MgCl2, unit not given): 4
MIC, KCl ([17]; E. coli ATCC25922, 4.5 mM KCl, unit not given): 4
MIC, NaCl ([17]; E. coli ATCC25922, 150 mM NaCl, unit not given): 4
MIC, Control ([17]; E. coli ATCC25922, absence of physiological salts, no unit printed in Table 3 (Table 2 MIC in μM)): 4
cell morphology by SEM [18]: rough and wrinkled
Retention Time [12]: 12.56 min
MBC (GM), geometric mean of MICs, Gram (+) ([14]; Gram-positive strains, 256 μM used where no activity at 128 μM): 5.04 µM
MBC (GM), geometric mean of MICs, Gram (+,−) ([15]; all strains, 256 μM used where no activity at 128 μM): 3.70 µM
